Test results reported in PubChem BioAssay (NCI).
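Cultured in 96-well plates, cells were exposed to test compound for 48 hours across five concentrations. Definition used: TGI = concentration required for complete inhibition of growth.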

Experiments:
Experiment in all cases: DTP human tumour cell line panel, 48 h
[1] = test system: SNB-75 CNS
[2] = test system: NCI-H460 lung
[3] = test system: HOP-62 NSCLC
[4] = test system: HL-60(TB) leukemia
[5] = test system: SK-MEL-28 melanoma
[6] = test system: U251 CNS
[7] = test system: SF-295 CNS
[8] = test system: IGROV1 ovarian
[9] = test system: RXF-631 renal
[10] = test system: ACHN renal
[11] = test system: SK-MEL-2 melanoma
[12] = test system: UACC-62 melanoma
[13] = test system: COLO 205 colon
[14] = test system: DMS 273 small cell lung
[15] = test system: NCI-H226 lung
[16] = test system: SR leukemia
[17] = test system: TK-10 renal
[18] = test system: UACC-257 melanoma
[19] = test system: K-562 leukemia
[20] = test system: 786-0 renal
[21] = test system: SNB-19 CNS
[22] = test system: SF-539 CNS
[23] = test system: OVCAR-4 ovarian
[24] = test system: OVCAR-8 ovarian
[25] = test system: DLD-1 colon
[26] = test system: DMS 114 small cell lung
[27] = test system: KM12 colon
[28] = test system: HCC-2998 colon
[29] = test system: HT29 colon
[30] = test system: UO-31 renal
[31] = test system: HCT-15 colon
[32] = test system: CCRF-CEM leukemia
[33] = test system: LXFL 529 NSCLC
[34] = test system: LOX IMVI melanoma
[35] = test system: NCI-H522 lung
[36] = test system: SNB-78 CNS
[37] = test system: KM20L2 colon
[38] = test system: CAKI-1 renal
[39] = test system: RPMI-8226 leukemia
[40] = test system: A498 renal
[41] = test system: M14 melanoma
[42] = test system: SW-620 colon
[43] = test system: SN12C renal
[44] = test system: A549 NSCLC
[45] = test system: RXF 393 renal
[46] = test system: SF-268 CNS
[47] = test system: OVCAR-5 ovarian
[48] = test system: MOLT-4 leukemia
[49] = test system: OVCAR-3 ovarian
[50] = test system: EKVX NSCLC
[51] = test system: NCI-H23 lung
[52] = test system: HCT-116 colon
[53] = test system: HOP-92 NSCLC
[54] = test system: MALME-3M melanoma
[55] = test system: HOP-18 NSCLC
[56] = test system: M19-MEL melanoma
[57] = test system: SK-OV-3 ovarian
[58] = test system: SK-MEL-5 melanoma

Compound: Cc1ccc(NC(=O)SCCC(=O)O)cc1
- TGI [1]: 66.7 µM
- TGI [2]: > 100 µM
- TGI [3]: > 100 µM
- TGI [4]: > 100 µM
- TGI [5]: > 100 µM
- TGI [6]: > 100 µM
- TGI [7]: > 100 µM
- TGI [8]: > 100 µM
- TGI [9]: > 100 µM
- TGI [10]: > 100 µM
- TGI [11]: > 100 µM
- TGI [12]: > 100 µM
- TGI [13]: > 100 µM
- TGI [14]: > 100 µM
- TGI [15]: > 100 µM
- TGI [16]: > 100 µM
- TGI [17]: > 100 µM
- TGI [18]: > 100 µM
- TGI [19]: > 100 µM
- TGI [20]: > 100 µM
- TGI [21]: > 100 µM
- TGI [22]: > 100 µM
- TGI [23]: > 100 µM
- TGI [24]: > 100 µM
- TGI [25]: > 100 µM
- TGI [26]: > 100 µM
- TGI [27]: > 100 µM
- TGI [28]: > 100 µM
- TGI [29]: > 100 µM
- TGI [30]: > 100 µM
- TGI [31]: > 100 µM
- TGI [32]: > 100 µM
- TGI [33]: > 100 µM
- TGI [34]: > 100 µM
- TGI [35]: > 100 µM
- TGI [36]: > 100 µM
- TGI [37]: > 100 µM
- TGI [38]: > 100 µM
- TGI [39]: > 100 µM
- TGI [40]: > 100 µM
- TGI [41]: > 100 µM
- TGI [42]: > 100 µM
- TGI [43]: > 100 µM
- TGI [44]: > 100 µM
- TGI [45]: > 100 µM
- TGI [46]: 94.9 µM
- TGI [47]: > 100 µM
- TGI [48]: > 100 µM
- TGI [49]: > 100 µM
- TGI [50]: > 100 µM
- TGI [51]: > 100 µM
- TGI [52]: > 100 µM

Compound: CN/N=C(\C)c1c(O)cc(C)oc1=O
- TGI [1]: > 100 µM
- TGI [53]: > 100 µM
- TGI [2]: > 100 µM
- TGI [3]: > 100 µM
- TGI [4]: > 100 µM
- TGI [5]: > 100 µM
- TGI [6]: > 100 µM
- TGI [7]: > 100 µM
- TGI [9]: > 100 µM
- TGI [10]: > 100 µM
- TGI [11]: > 100 µM
- TGI [12]: > 100 µM
- TGI [15]: > 100 µM
- TGI [16]: > 100 µM
- TGI [17]: > 100 µM
- TGI [18]: > 100 µM
- TGI [19]: > 100 µM
- TGI [20]: > 100 µM
- TGI [54]: > 100 µM
- TGI [55]: > 100 µM
- TGI [21]: > 100 µM
- TGI [22]: > 100 µM
- TGI [23]: > 100 µM
- TGI [24]: > 100 µM
- TGI [25]: > 100 µM
- TGI [27]: > 100 µM
- TGI [28]: > 100 µM
- TGI [29]: > 100 µM
- TGI [30]: > 100 µM
- TGI [31]: > 100 µM
- TGI [32]: > 100 µM
- TGI [33]: > 100 µM
- TGI [34]: > 100 µM
- TGI [35]: > 100 µM
- TGI [56]: > 100 µM
- TGI [37]: > 100 µM
- TGI [38]: > 100 µM
- TGI [57]: > 100 µM
- TGI [40]: > 100 µM
- TGI [41]: > 100 µM
- TGI [42]: > 100 µM
- TGI [43]: > 100 µM
- TGI [44]: > 100 µM
- TGI [46]: > 100 µM
- TGI [48]: > 100 µM
- TGI [50]: > 100 µM
- TGI [51]: > 100 µM
- TGI [52]: > 100 µM

Compound: COc1nc(NC2OCC(OC(C)=O)C(OC(C)=O)C2OC(C)=O)c(-c2csc(N)n2)c(=O)n1C (centres undefined)
- TGI [1]: > 100 µM
- TGI [53]: > 100 µM
- TGI [2]: > 100 µM
- TGI [3]: > 100 µM
- TGI [4]: > 100 µM
- TGI [5]: > 100 µM
- TGI [6]: > 100 µM
- TGI [7]: > 100 µM
- TGI [8]: > 100 µM
- TGI [9]: > 100 µM
- TGI [10]: > 100 µM
- TGI [11]: > 100 µM
- TGI [12]: > 100 µM
- TGI [13]: > 100 µM
- TGI [15]: > 100 µM
- TGI [16]: > 100 µM
- TGI [17]: > 100 µM
- TGI [18]: > 100 µM
- TGI [19]: > 100 µM
- TGI [20]: > 100 µM
- TGI [54]: > 100 µM
- TGI [55]: > 100 µM
- TGI [21]: > 100 µM
- TGI [22]: > 100 µM
- TGI [23]: > 100 µM
- TGI [24]: > 100 µM
- TGI [25]: > 100 µM
- TGI [26]: > 100 µM
- TGI [27]: > 100 µM
- TGI [29]: > 100 µM
- TGI [30]: > 100 µM
- TGI [31]: > 100 µM
- TGI [32]: > 100 µM
- TGI [33]: > 100 µM
- TGI [34]: > 100 µM
- TGI [35]: > 100 µM
- TGI [36]: > 100 µM
- TGI [56]: > 100 µM
- TGI [37]: > 100 µM
- TGI [38]: > 100 µM
- TGI [57]: > 100 µM
- TGI [39]: > 100 µM
- TGI [40]: > 100 µM
- TGI [41]: > 100 µM
- TGI [42]: > 100 µM
- TGI [43]: > 100 µM
- TGI [44]: > 100 µM
- TGI [46]: > 100 µM
- TGI [47]: > 100 µM
- TGI [48]: > 100 µM
- TGI [49]: > 100 µM
- TGI [58]: > 100 µM
- TGI [51]: > 100 µM
- TGI [52]: > 100 µM
